Laboratory results: patent US4593093A, “Acyl derivatives” (priority 1980, dated 1986)
Where a name gives a salt, the structure may show the parent alone. Read-outs that look alike come from different tables or passages of the source.

Tests used:
Klebsiella pseumoniae = assay: Activity in vitro: minimum inhibitory concentration; type: cell-based
Escherichia coli [1] = assay: Activity in vivo: survival of intraperitoneally infected mice; details: sc, 96 h; mice infected i.p. with Escherichia coli; s.c. twice, 1 h and 3 h after infection; survival on 4th day; read-out: CD50 (dosage at which 50% of the animals survive)
Method: (§1) Groups of 5 mice are infected intraperitoneally with an aqueous suspension of various pathogens. The test substance in physiological sodium chloride solution is administered subcutaneously twice, i.e. 1 hour and 3 hours after the infection. The number of surviving animals is determined on the 4th day. Various dosages are administered and that dosage at which 50% of the experimental animals survive (CD50, mg/kg) is determined by interpolation.

Enterobacter cloacae [2] = assay: as above; details: sc, 96 h; mice infected i.p. with Enterobacter cloacae; s.c. twice, 1 h and 3 h after infection; survival on 4th day; read-out: CD50 (dosage at which 50% of the animals survive)
Method: as §1

Streptococcus pyogenes [3] = assay: as above; details: sc, 96 h; mice infected i.p. with Streptococcus pyogenes; s.c. twice, 1 h and 3 h after infection; survival on 4th day; read-out: CD50 (dosage at which 50% of the animals survive)
Method: as §1

Serratia marcescens [4] = assay: as above; details: sc, 96 h, mice infected i.p. with Serratia marcescens strain 1, s.c. twice, 1 h and 3 h after infection, survival on 4th day, read-out: CD50 (dosage at which 50% of the animals survive)
Method: as §1

Proteus morganii = assay: Activity in vitro: minimum inhibitory concentration; type: cell-based; details: Morganella morganii
Serratia marcescens [5] = assay: as above; type: cell-based
Pseudomonas aeruginosa [6] = assay: Activity in vivo: survival of intraperitoneally infected mice; details: sc, 96 h; mice infected i.p. with Pseudomonas aeruginosa; s.c. three times, 1 h, 3 h and 5 h after infection; survival on 4th day; read-out: CD50 (dosage at which 50% of the animals survive)
Method: as §1
*Administered subcutaneously three times: 1 hour, 3 hours and 5 hours

Citrobacter freundii = assay: Activity in vitro: minimum inhibitory concentration; type: cell-based
Staphylococcus aureus = assay: as above; type: cell-based
Enterobacter cloacae [7] = assay: as above; type: cell-based
Streptococcus pyogenes [8] = assay: as above; type: cell-based
Proteus rettgeri = assay: as above; type: cell-based; details: Providencia rettgeri
Proteus mirabilis = assay: as above; type: cell-based
Streptococcus faecalis = assay: as above; type: cell-based; details: Enterococcus faecalis
Streptococcus pneumoniae = assay: as above; type: cell-based
Staphylococcus epidermis = assay: as above; type: cell-based
Escherichia coli [9] = assay: as above; type: cell-based
Pseudomonas aeruginosa [10] = assay: as above; type: cell-based
Proteus inconstans = assay: as above; type: cell-based; details: Providencia alcalifaciens
Enterobacter aerogenes = assay: as above; type: cell-based; details: Klebsiella aerogenes
Streptococcus viridans = assay: as above; type: cell-based
[11] = Streptococcus pyogenes strain 1, read-out: Minimum inhibitory concentration
[12] = Streptococcus faecalis strain 1
[13] = Streptococcus faecalis strain 2
[14] = Pseudomonas aeruginosa strain 3
[15] = Enterobacter aerogenes strain 1
[16] = Enterobacter aerogenes strain 2
[17] = read-out: Minimum inhibitory concentration, Streptococcus pyogenes strain 2

| Compound | MIC (Klebsiella pseumoniae; Klebsiella pseumoniae strain 1) [µg/mL] | MIC (Klebsiella pseumoniae; Klebsiella pseumoniae strain 2) [µg/mL] | MIC (Klebsiella pseumoniae; Klebsiella pseumoniae strain 3) [µg/mL] | ED50 (Streptococcus pyogenes [3]) [mg/kg] | MIC (Proteus morganii) [µg/mL] | MIC (Serratia marcescens [5]; Serratia marcescens strain 1) [µg/mL] | MIC (Serratia marcescens [5]; Serratia marcescens strain 2) [µg/mL] | MIC (Serratia marcescens [5]; Serratia marcescens strain 3) [µg/mL] | MIC (Citrobacter freundii; Citrobacter freundii strain 1) [µg/mL] | MIC (Citrobacter freundii; Citrobacter freundii strain 2) [µg/mL] | MIC (Staphylococcus aureus; Staphylococcus aureus strain 1) [µg/mL] | MIC (Staphylococcus aureus; Staphylococcus aureus strain 2) [µg/mL] | MIC (Staphylococcus aureus; Staphylococcus aureus strain 3) [µg/mL] | MIC (Staphylococcus aureus; Staphylococcus aureus strain 4) [µg/mL] | MIC (Enterobacter cloacae [7]; Enterobacter cloacae strain 1) [µg/mL] | MIC (Enterobacter cloacae [7]; Enterobacter cloacae strain 2) [µg/mL] | MIC (Enterobacter cloacae [7]; Enterobacter cloacae strain 3) [µg/mL] | MIC (Streptococcus pyogenes [8]; [11]) [µg/mL] | MIC (Proteus mirabilis; Proteus mirabilis strain 3) [µg/mL] | MIC (Proteus mirabilis; Proteus mirabilis strain 4) [µg/mL] | also measured |
| --- | --- | --- | --- | --- | --- | --- | --- | --- | --- | --- | --- | --- | --- | --- | --- | --- | --- | --- | --- | --- | --- |
| CC(=O)OCC1=C(C(=O)O)N2C(=O)[C@@H](NC(=O)/C(=N\OC(C)(C)C(=O)O)c3c[se]c(N)n3)[C@H]2SC1 [Product I, disodium salt] | 0.8 | 0.4 | 0.8 | 2.7 | 0.8 | 1.6 | 3.1 | 0.4 | 100 | 1.6 | 50 | 100 | 50 | 100 | > 100 | 6.3 | > 100 | 0.2 | 0.1 | 0.1 | ED50 (Escherichia coli [1]): 0.067 mg/kg; ED50 (Enterobacter cloacae [2]): > 50 mg/kg; ED50 (Serratia marcescens [4]): 1.8 mg/kg; ED50 (Pseudomonas aeruginosa [6]): 23 mg/kg; MIC (Streptococcus pyogenes [8]; Streptococcus pyogenes strain 2, read-out: Minimum inhibitory concentration): 0.05 µg/mL; MIC (Proteus rettgeri): 0.1 µg/mL; MIC (Proteus mirabilis; Proteus mirabilis strain 5): 0.2 µg/mL; MIC (Streptococcus faecalis; [12]): > 100 µg/mL; MIC (Streptococcus faecalis; [13]): > 100 µg/mL; MIC (Streptococcus pneumoniae): 0.2 µg/mL; MIC (Staphylococcus epidermis): 50 µg/mL; MIC (Escherichia coli [9]; Escherichia coli strain 1): 1.6 µg/mL; MIC (Escherichia coli [9]; Escherichia coli strain 2): 0.2 µg/mL; MIC (Escherichia coli [9]; Escherichia coli strain 3): 0.8 µg/mL; MIC (Escherichia coli [9]; Escherichia coli strain 5): 0.4 µg/mL; MIC (Pseudomonas aeruginosa [10]; [14]): 1.6 µg/mL; MIC (Proteus inconstans): 0.012 µg/mL; MIC (Enterobacter aerogenes; [15]): 0.4 µg/mL; MIC (Enterobacter aerogenes; [16]): 0.2 µg/mL; MIC (Streptococcus viridans): 6.3 µg/mL |
| CC(C)(O/N=C(\C(=O)N[C@@H]1C(=O)N2C(C(=O)[O-])=C(C[n+]3ccccc3)CS[C@H]12)c1c[se]c(N)n1)C(=O)O [Product K, 1-[[(6R, 7R)-7-[(Z)-2-(2-amino-4-selenazolyl)-2-[(1-carboxy-1-methylethoxy)imino]acetamido]-2-carboxy-8-oxo-5-thia-1-azabicyclo[4.2.0]oct-2-en-3-yl]methyl]pyridinium hydroxide sodium salt (internal salt)] | 0.8 | 0.2 | 0.8 | 0.28 | 0.2 | 0.8 | 0.8 | 0.1 | 12.5 | 0.4 | 12.5 | 50 | 12.5 | 12.5 | > 100 | 1.6 | 100 | 0.4 | 0.4 | 0.1 | ED50 (Serratia marcescens [4]): 0.11 mg/kg; ED50 (Pseudomonas aeruginosa [6]): 1.1 mg/kg; MIC (Streptococcus pyogenes [8]; [17]): 0.1 µg/mL; MIC (Proteus mirabilis; Proteus mirabilis strain 5): 0.05 µg/mL; MIC (Streptococcus faecalis; [12]): > 100 µg/mL; MIC (Streptococcus faecalis; [13]): > 100 µg/mL; MIC (Streptococcus pneumoniae): 0.1 µg/mL; MIC (Staphylococcus epidermis): 12.5 µg/mL; MIC (Escherichia coli [9]; Escherichia coli strain 1): 0.4 µg/mL; MIC (Escherichia coli [9]; Escherichia coli strain 2): 0.1 µg/mL; MIC (Escherichia coli [9]; Escherichia coli strain 3): 0.8 µg/mL; MIC (Escherichia coli [9]; Escherichia coli strain 4): 25 µg/mL; MIC (Escherichia coli [9]; Escherichia coli strain 5): 0.4 µg/mL; MIC (Pseudomonas aeruginosa [10]; [14]): 1.6 µg/mL; MIC (Proteus inconstans): 0.05 µg/mL; MIC (Enterobacter aerogenes; [15]): 0.4 µg/mL; MIC (Enterobacter aerogenes; [16]): 0.2 µg/mL; MIC (Streptococcus viridans): 3.1 µg/mL |
| CC(=O)OCC1=C(C(=O)[O-])N2C(=O)[C@@H](NC(=O)/C(=N\O)c3c[se]c(N)n3)[C@H]2SC1.[Na+] [Product L, (6R, 7R)-3-(acetoxymethyl)-7-[2-(2-amino-4-selenazolyl)-2-[(Z)-hydroxyimino]-acetamido]-8-oxo-5-thia-1-azabicyclo[4.2.0]oct-2-ene-2-carboxylic acid sodium salt] | ≤ 0.025 | ≤ 0.025 | ≤ 0.025 | 0.08 | 0.4 | 0.8 | 1.6 | 0.1 | 3.1 | 0.025 | 0.2 | 0.4 | 0.4 | 0.4 | 200 | 6.3 | 25 | 0.05 | ≤ 0.025 | 0.05 | MIC (Streptococcus pyogenes [8]; [17]): ≥ 0.025 µg/mL; MIC (Proteus mirabilis; Proteus mirabilis strain 5): 0.05 µg/mL; MIC (Streptococcus faecalis; [12]): 25 µg/mL; MIC (Streptococcus faecalis; [13]): 25 µg/mL; MIC (Streptococcus pneumoniae): 0.1 µg/mL; MIC (Staphylococcus epidermis): 0.4 µg/mL; MIC (Escherichia coli [9]; Escherichia coli strain 1): ≤ 0.025 µg/mL; MIC (Escherichia coli [9]; Escherichia coli strain 2): ≤ 0.025 µg/mL; MIC (Escherichia coli [9]; Escherichia coli strain 3): 1.6 µg/mL; MIC (Escherichia coli [9]; Escherichia coli strain 4): 6.3 µg/mL; MIC (Escherichia coli [9]; Escherichia coli strain 5): 0.1 µg/mL; MIC (Pseudomonas aeruginosa [10]; Pseudomonas aeruginosa strain 1): 50 µg/mL; MIC (Pseudomonas aeruginosa [10]; [14]): 12.5 µg/mL; MIC (Proteus inconstans): ≤ 0.025 µg/mL; MIC (Enterobacter aerogenes; [15]): ≤ 0.025 µg/mL; MIC (Enterobacter aerogenes; [16]): 0.4 µg/mL; MIC (Streptococcus viridans): 0.8 µg/mL |
